According to patent US5852003A, “Drug and pharmaceutical composition for the treatment of muscles” (Societe Valbiofrance, priority 1994, dated 1998):
“Also recorded” adds a separate entry of the source.

Columns and labels:
FGF 2 = assay: potentialization of FGF 2 biological activity, tritiated thymidine incorporation in CCL39 cells; assay type: cell-based
Description: (§1) The cells used in this example are CCL39 cells from the American Tissue Culture Collection. The conditions concerning culture and the measurement test of FGF biological activity are the same as those described in the publication by Tardieu and coll. in the Journal of Cellular Physiology, 1992. The FGF growth factors used are the FGF 1 and FGF 2 recombinant forms.
(§2) In these experiments, the FGF 1 or 2 is used at a dose corresponding to the effective dose (called ED50) in order to induce a stimulation of the biological activity of 50% of the dose inducing the maximum stimulation. The biological activity is measured by the ability to induce an increase of the incorporation of tritiated thymidine in the cells according to protocols extensively described in numerous publications such as the previously mentioned publication by Tardieu et coll. and also in French Patent 2 644 066. […] In addition to this ability to potentialize the biological activity of the FGFs, the HBGFPPs protect the FGFs against thermal degradations and the inactivation induced by the proteolytic action of trypsin (FIGS. 3 to 5). Similarly, these HBGFPPs protect FGF1 and 2 against an inactivation induced by the proteolytic activity of trypsin (5A and 5B).

125I-FGF2 = assay: protection of 125I-FGF2 against proteolytic degradation by trypsin, gel autoradiography; assay type: biochemical; conditions: 37° C., FIG. 5B
Method: (§3) Proteolytic digestion was carried out at 37° C. and the samples were separated by 18% polyacrylamide gel electrophoresis. The gels are dried and autoradiographed. The first track contains the ^125 I-FGF1 on its own.
The arrangement of the tracks is identical to that presented for the ^125 I-FGF1 in FIG. 5A.

leukocytic elastase [1] = conditions: cited from earlier work
EDL muscles [2] = assay: regeneration of skeletal muscle after deinnervation followed by crushing; assay type: in vivo, Wistar rats; conditions: for Ratio regenerated/ contralateral intact (muscle weight): 10 μg injected after deinnervation and crushing; for % ratio treated/ ratio degenerated: 10 μg injected, PBS-treated muscle = 100
Method: The protocol is exactly the same as that described in Example 4 but the crushing of the muscle is preceded by section of the motor nerve at the entrance of the muscle.
The substances are in saline phosphate buffer solution (PBS).
Injection takes place after deinnervation and crushing , using a 50 μl microsyringe equipped with a flexible needle 60 mm in length and 0.4 mm in diameter. Two injections are carried out at an interval of 2 min. The volume injected is therefore 100 μl. The sucrase […] was supplied free of charge by D. Bar Shalom Bulk Medic, Denmark.
After sacrifice of the animal, the EDL muscles of the treated paw and the contralateral paw are weighed. Since individual variations in the weight of normal muscles in animals of the same age can reach 20%, the results were standardized by calculating the ratio of the treated muscle to its contralateral intact control.
This ratio was considered to be 100% for the muscles treated by PBS alone. The degree of regeneration of muscles treated by the different substances was calculated in % of the muscle injected by PBS.

beta TGF = biological target: T1, beta TGF (Homo sapiens, UniProt P01137); assay: protection of beta TGF against degradation by trypsin, beta TGF activity read on CCL64 cells; assay type: cell-based; conditions: for % inhibiting activity of the incorporation of tritiated thymidine in CCL64 cells: 37° C. 10 min, dilution 50 times
T1 construct: from tissue; host or cells: human blood platelets
Method: In order to measure the capacity of certain CMDBSs to interact with members of the beta TGF family and, by means of this interaction, to protect the beta TGFs, a grading test was devised.
The beta 1 TFG is prepared from human blood platelets according to a protocol described in numerous publications (for example Growth factors and their receptors, 1992, vol 1 pp 419-472, written by A. Roberts and M. Sporn, edited by A. Roberts and M. Sporn, and published by Springer Verlag Berlin) and are commonly used by persons of ordinary skill in the art. The beta TGF biological activity test used in this example is that of the inhibition of CCL64 cells (from the American Tissue Culture Collection). This inhibition is measured by the ability of the beta TGF to inhibit the incorporation of tritiated thymidine in a dose dependent manner in these CCL64 cells stimulated by the FGF or by fetal calf serum according to the protocol described by Van Zolen in Progress in Growth Factor Research, 1990, 2, pp 131 to 152.
Two doses of beta TGF are used, one corresponding to the 50% inhibition capacity of the incorporation of tritiated thymidine (defined as the inhibiting activity unit) and the other corresponding to the 100% inhibition capacity.
The final volume of the incubated solution is adjusted to 1 ml and incubation is carried out at 37° C. for a varying length of time (10 minutes in the example described (Table 1)).
20 μl samples of are taken from each of the incubation reactions and added to CCL64 cells cultivated in 24-well plates, each well containing milliliter of culture medium according to the aforementioned protocol described by E. Zohlen. In these conditions, the final concentration of beta TGF per well is 1 ng/ml.
The incubation mixture contained 50 ng of beta TGF (in 0.1% bovine serum albumin) and trypsin (500 μg). Mesoglycan or sulodexide or dextran sulfate or dextran or sucrase are used at the dose of 5000 μg.
The beta TGF biological activity is measured as described above after a dilution of 50 times and by using CCL64 cells.

FGF 1 = assay: potentialization of FGF 1 biological activity, tritiated thymidine incorporation in CCL39 cells; assay type: cell-based
Description: as §1, §2

FGF2 = assay: protection of FGF2 against thermal degradation, activity on CCL39 cells; assay type: cell-based; conditions: 20 μg heparin, 10 μg mesoglycan or sulodexide; 20° C. and 37° C. for 1, 7, 15, 30 days
Method: (§4) (a) and 37° C. (b) for 1, 7, 15, 30 days. The measurement of the biological activity presented in abscissa corresponds to the stimulation unit values (ED50) of the incorporation of tritiated thymidine in CCL39 cells.
as §2

FGF = assay: semi-quantitative evaluation of FGF protection against trypsin, densitometry of radio-labelled FGF; assay type: biochemical; conditions: FGF + trypsin + polymer; radio-labelled FGF found compared to quantity deposited
Method: As described above, a constant quantity of radioactive FGF is incubated under various conditions. After autoradiography of the reaction products, the non degraded quantity of radioactive FGF is quantified by densitometry. The values correspond to the percentage of radio-labelled FGF found, compared to the quantity deposited at the start of reaction (Table 5).

coagulation = assay: anticoagulant activity
FGF1 = assay: protection of FGF1 against thermal degradation, activity on CCL39 cells; assay type: cell-based; conditions: 20 μg heparin, 10 μg mesoglycan or sulodexide; 20° C. and 37° C. for 1, 7, 15, 30 days
Method: as §4, §2

leukocytic elastase [3] = assay: inhibition of leukocytic elastase activity; assay type: biochemical; conditions: 37° C., pH 8, elastase 8.3 nM, 0.10 mM MeO-Suc-Ala-Ala-Pro-Val-pNA
Method: The purified leukocytic elastase was obtained by Elastin Products Co (Owenville, Mo., U.S.A.) and the plasmin from SIGMA.
The enzymes under consideration are placed in solution in a 100 mM Tris-HCL buffer, pH 8 for the elastase and pH 7.4 for the plasmin, in the presence of 0.02% sodium azide and 0.01% Triton X100 for the plasmin. The substrate and enzyme concentrations are: 0.10 mM MeO-Suc-Ala-Ala-Pro-Val-pNA (paranitroanilide)for the elastase at 8.3 nM, and 0.20 mM dVal-Leu-dLys-pNA for the plasmin at 77 nM. The IC50 is determined for each of the conditions.
Batch EM5 corresponds to a T10 dextran of […]. The intermediate products of synthesis are identified by the symbols given above with an index number specifying the number of each substitution reaction.

125I-FGF1 = assay: protection of 125I-FGF1 against proteolytic degradation by trypsin, gel autoradiography; assay type: biochemical; conditions: 37° C., FIG. 5A
Method: as §3

EDL muscles [4] = test system: EDL muscles
Method: The experiment was conducted on seven Wistar rats aged two and a half months and weighing three hundred grams.
After annesthesia by ether, the EDL muscles (muscles of hind rat paws) were removed from the forefoot and mechanically damaged by applying a constant pressure on the entire length of the muscle, using a Pean forceps. The pressure was maintained for fifteen seconds, the forceps being closed at the second notch. The homogeneity of the lesion on the whole of the muscle was controlled by following its infarction for 30 seconds. The muscle was then put back in position and the skin sutured by linen thread.
The regeneration controls were injected with the same quantity of PBS alone. Depending on the experiments, injection took place before or after the lesion of the muscle. The 200 μl were injected in one minute and the product's diffusion was ensured by leaving the muscle for two minutes before putting it back in the forefoot.
The treated muscles and the controls were collected after 8 days of regeneration and then immediately frozen at -150° C. in isopentane. Frozen transverse sections of 10 μm thickness were made in the median region of the muscle. The dried sections were colored by Gomori trichrome.
The morphometric analysis of the number of fibers and of their diameter was performed on micrographic montages corresponding to a transverse half-section of muscle.

trypsin = trypsin enzymatic activity on substrate S.87
Method: The enzymatic activity of trypsin was measured by spectrophotometric absorption of the transformation product of S 87 in versus of the incubation time.

complement system = assay: anticomplement activity (CH50); conditions: measured according to Mauzac et al.
[5] = beta TGF 50 ng + polymer 5000 μg + trypsin 500 μg
[6] = beta TGF 50 ng + polymer 5000 μg, no trypsin
[7] = 10 μg/ml mesoglycan or 20 μg/ml heparin, CCL39 cells
[8] = single injection of 200 μl of 50 μ/ml, after 8 days of regeneration

T1 sequence (P01137 279-390 limits assumed): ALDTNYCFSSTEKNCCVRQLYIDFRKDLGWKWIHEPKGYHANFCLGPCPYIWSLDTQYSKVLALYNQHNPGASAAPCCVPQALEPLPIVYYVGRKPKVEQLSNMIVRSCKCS

FGF 2: FGF 2 recombinant form growth factor
ED50 of FGF 2 (FGF 2; FGF 2 alone, CCL39 cells): 3 ng/mL

heparin
protective effect against proteolytic degradation of 125I-FGF2 (in words) (125I-FGF2): protective effect | Ki (leukocytic elastase [1]): ~1 nM | Ratio regenerated/ contralateral intact (muscle weight) (EDL muscles [2]): 0.590 | % ratio treated/ ratio degenerated (EDL muscles [2]): 86% | muscular repair and regeneration (in words) (EDL muscles [2]; rat, in vivo): neither heparin nor dextran sulfate present properties on muscular regeneration | protection of the beta TGF against proteolysis induced by trypsin (in words) (beta TGF): neither sucrase, nor heparin nor dextran sulfate protect the beta TGF | biological activity of the beta TGF still present (beta TGF; after 10 min of incubation at 37° C. with trypsin): less than 20% | % inhibiting activity of the incorporation of tritiated thymidine in CCL64 cells (beta TGF; [5]): 10% | % inhibiting activity of the incorporation of tritiated thymidine in CCL64 cells (beta TGF; [6]): 100% | % inhibiting activity of the incorporation of tritiated thymidine in CCL64 cells (beta TGF; polymer 5000 μg alone, no beta TGF, no trypsin): 0% | ED50 of FGF 1 in the presence of the polymer (FGF 1; [7]): 0.4 ng/mL | potentialization of the biological activity of FGF1 (in words) (FGF 1; 20 μg of heparin, 10 μg of mesoglycan or 10 μg of sulodexide, FIG. 2A): potentialization of the biological activity | protective effect against thermal degradation of FGF2 (in words) (FGF2): protective effect | PROTECTION (in %) of the FGF (FGF): 100% | anticoagulant activity (coagulation): 175 IU/mg | protective effect against thermal degradation of FGF1 (in words) (FGF1): protective effect | Leukocytic elastase IC50 (leukocytic elastase [3]): 1800 ng/mL | ED50 of FGF 2 in the presence of the polymer (FGF 2; [7]): 0.2 ng/mL | potentialization of the biological activity of FGF2 (in words) (FGF 2; 20 μg of heparin, 10 μg of mesoglycan or 10 μg of sulodexide, FIG. 2B): potentialization of the biological activity | protective effect against proteolytic degradation of 125I-FGF1 (in words) (125I-FGF1): protective effect

O=S(=O)(O)OC[C@H]1O[C@@](COS(=O)(=O)O)(O[C@H]2O[C@H](COS(=O)(=O)O)[C@@H](OS(=O)(=O)O)[C@H](OS(=O)(=O)O)[C@H]2OS(=O)(=O)O)[C@@H](OS(=O)(=O)O)[C@@H]1OS(=O)(=O)O [sucrase, sucrose octasulfate]
Ratio regenerated/ contralateral intact (muscle weight) (EDL muscles [2]): 0.620 | % ratio treated/ ratio degenerated (EDL muscles [2]): 87% | protection of the beta TGF against proteolysis induced by trypsin (in words) (beta TGF): neither sucrase, nor heparin nor dextran sulfate protect the beta TGF

dextran
Protection of the beta TGF (beta TGF biological activity) (beta TGF; [5]): 0% | Protection of the beta TGF (beta TGF biological activity) (beta TGF; [6]): 100%

dextran sulfate
protection of the beta TGF against proteolysis induced by trypsin (in words) (beta TGF): neither sucrase, nor heparin nor dextran sulfate protect the beta TGF | Protection of the beta TGF (beta TGF biological activity) (beta TGF; [5]): 0% | Protection of the beta TGF (beta TGF biological activity) (beta TGF; [6]): 100% | Diameter of muscles (EDL muscles [4]; [8]): 3.9 ± 0.4 mm | Mean diameter of regenerated fibers (EDL muscles [4]; [8]): 28.2 ± 4.6 | Number of fibers on a half-section (EDL muscles [4]; [8]): 418 | muscular regeneration after crushing, macroscopic and histological findings (in words) (EDL muscles [4]; single injection, 8 days of regeneration): no qualitative or quantitative modification of muscular regeneration; also recorded: neither heparin nor dextran sulfate present properties on muscular regeneration

carboxymethyl dextran benzylamide sulfonate [CMDBS]
inhibiting power on the activity of trypsin (in words) (trypsin): no inhibiting power | trypsin activity (trypsin; Trypsin 10 ug/ml + S87 + 5 ug/ml CMDBS): 100 | trypsin activity (trypsin; Trypsin 10 ug/ml + S87 + 50 ug/ml CMDBS): 100 | trypsin activity (trypsin; Trypsin 10 ug/ml + S87 + 500 ug/ml CMDBS): 100 | anticoagulant activity (coagulation): 4 IU/mg | anticomplement activity, CH50 (complement system): 1.1 µg

FGF 1: FGF 1 recombinant form growth factor
ED50 of FGF 1 (FGF 1; FGF 1 alone, CCL39 cells): 5 ng/mL

B1: STBI: trypsin inhibitor originating from soya, from Sigma (protein, UniProt P01070 25-205, looked up)
Trypsin inhibitor A: DFVLDNEGNPLENGGTYYILSDITAFGGIRAAPTGNERCPLTVVQSRNELDKGIGTIISSPYRIRFIAEGHPLSLKFDSFAVIMLCVGIPTEWSVVEDLPEGPAVKIGENKDAMDGWFRLERVSDDEFNNYKLVFCPQQAEDDKCGDIGISIDHDDGTRRLVVSKNKPLVVQFQKLDKESL
trypsin activity (trypsin; Trypsin + S87 + STBI): 0
